# Assays:
# occludin = experiment: Test for evaluating TJ-forming ability: occludin immunostaining fluorescence intensity in Skin Model slices; type: cell-based; details: 1 w/v %, relative to non-applied group
# claudin-1 (CLDN1) gene = experiment: Promoting effect on TJ-related gene expression: claudin-1 (CLDN1) gene (quantitative real-time PCR, standardized to GAPDH); type: cell-based, human; details: SVHK cells, 1 μM, 48 hours, purified water control = 1.00
# Description: (§1) Human epidermal cells (SVHK cells) which were established from introduction of SV40 gene into human epidermal cells, were seeded on a plastic petri dish at a seeding density of 10,000 cells/cm^2 and cultured for 24 hours in Dulbecco's Modified Eagle's Medium (DMEM, manufactured by Sigma-Aldrich Co. LLC.) containing 10% fetal bovine serum. Next, to the medium of SVHK cells, 1 μM inositol derivative (composition thereof will be described below) dissolved in purified water was added to the final concentration of 1 μM, and culturing was further performed for 48 hours. […] The inositol derivative used was analyzed by using liquid chromatography-mass spectrometry (LC-MS), and the results are as follows. […] Next, quantitative real-time PCR was performed using this cDNA as a template, and the expression levels of claudin-1 (CLDN1) gene and occludin (OCL) gene in SVHK cells of each group were quantified. In addition, the expression level of glyceraldehyde-3-phosphate dehydrogenase (GAPDH) which is a housekeeping gene in which variation is not observed in the expression by adding a compound, as an internal standard gene, was quantified, and based on the expression levels of GAPDH gene in SVHK cells of each group, the expression levels of CLDN1 gene and OCL gene were standardized. […]
# occludin (OCL) gene = experiment: Promoting effect on TJ-related gene expression: occludin (OCL) gene (quantitative real-time PCR, standardized to GAPDH); type: cell-based, human; details: SVHK cells, 1 μM, 48 hours, purified water control = 1.00
# Description: as §1
# TRPV4 gene = experiment: Promoting effect on TRPV4 gene expression (quantitative real-time PCR, standardized to GAPDH); type: cell-based, human; details: SVHK cells, 1 μM, 48 hours, purified water control = 1.00
# Description: as §1, with “cells, an” for “cells, 1 μM”, “hours. As for a control, in place of 1 μM inositol derivative, the same amount of purified water was added to SVHK cells, and the cells were cultured in the same manner as above.” for “hours.”, “of TRPV4” for “of claudin-1 (CLDN1) gene and occludin (OCL)”, “of TRPV4” for “of CLDN1 gene and OCL”
# [1] = test system: Skin Model (type EP1-200); experiment: Test for evaluating TJ-forming ability: transepidermal water loss (TEWL) of Skin Model; type: cell-based; details: 1 w/v % on surface of Skin Model, 24 hours
# Description: Skin Model (type “EP1-200” manufactured by KURABO INDUSTRIES LTD.) was cultured before 24 hours at 37° C. under 5% CO2. Next, an inositol derivative (composition thereof will be described below) dissolved in purified water in each concentration of 0.1, 0.5, and 1 w/v % was added to the surface of Skin Model, and culturing was further performed for 24 hours. Next, the inositol derivative was removed, Skin Model was washed three times with a phosphate buffer solution, and transepidermal water loss (TEWL) thereof was measured. For the measurement of TEWL, a cyclone-type moisture-transpiration meter (manufactured by […]) was used. The inositol derivative used was analyzed by using liquid chromatography-mass spectrometry (LC-MS), and the results are as follows. […] As for a control, prepared were a group added with nothing in place of the inositol derivative and a group added with the same amount of purified water in place of the inositol derivative, and TEWL was measured in the same manner as above. In addition, for comparison, prepared was a group in which myo-inositol dissolved in purified water in a concentration of 1 w/v % was added in place of the inositol derivative, and TEWL was measured in the same manner as above.
smiles,measurement,setting,value
"O[C@H]1[C@H](O)[C@@H](O)[C@H](O)[C@@H](O)[C@H]1O [Myo-inositol, myo-inositol]",Fluorescence intensity (relative value),occludin,3.32 relative value
same,Expression levels of gene (relative value) CLDN1,claudin-1 (CLDN1) gene,1.57 relative value
same,Expression levels of gene (relative value) OCL,occludin (OCL) gene,0.94 relative value
same,Expression levels of TRPV4 gene (relative value),TRPV4 gene,0.84 relative value
same,TEWL,[1],30.7 ± 2.9 g/(h · m^2)

# Source: patent publication US20170312301A1, “SKIN BARRIER FUNCTION-IMPROVING AGENT AND COMPOSITION FOR IMPROVING SKIN BARRIER FUNCTION” (SHOWA DENKO K.K., priority 2014, published 2017)
